Literature values in patent US20170136076A1, “THERAPEUTIC COMPOSITIONS COMPRISING HERBAL EXTRACTS AND ESSENTIAL OILS FOR SMOKING AND VAPORIZATION” (NISARGA BIOTECH PRIVATE LIMITED, priority 2015, published 2017).

Key:
[1] = pure THC in the vaporizer
[2] = after 90 minutes; condenses on the surface of the vaporizer or the balloon

CCCCCc1cc(O)c2c(c1)OC(C)(C)[C@@H]1CCC(C)=C[C@@H]21 [THC, tetrahydrocannabinol]
degradation products (delta-8-THC, cannabinol, unknown compounds) detected by HPLC [1]: no degradation products
loss of THC from stored vapor [2]: exceed 50%
